Results published in patent US11713305B2, “Zinc sensors for in vivo imaging of beta-cell function by MRI” (The Board of Regents of the University of Texas System, priority 2017, dated 2023).

Key:
[1] = target: T1, HSA (Homo sapiens, UniProt P02768); test: Proton relaxation enhancement (PRE) titrations with HSA; assay type: binding; details: for r1^c (relaxivity of the bound state): HSA-bound GdL-Zn, from PRE fit; for Kd: fitting proton relaxation enhancement data to equation (1), 20 MHz, 310 K, read-out: KD(GdLZnHSA)
T1 construct: purchased Sigma-Aldrich
T1 sequence (P02768 25-609): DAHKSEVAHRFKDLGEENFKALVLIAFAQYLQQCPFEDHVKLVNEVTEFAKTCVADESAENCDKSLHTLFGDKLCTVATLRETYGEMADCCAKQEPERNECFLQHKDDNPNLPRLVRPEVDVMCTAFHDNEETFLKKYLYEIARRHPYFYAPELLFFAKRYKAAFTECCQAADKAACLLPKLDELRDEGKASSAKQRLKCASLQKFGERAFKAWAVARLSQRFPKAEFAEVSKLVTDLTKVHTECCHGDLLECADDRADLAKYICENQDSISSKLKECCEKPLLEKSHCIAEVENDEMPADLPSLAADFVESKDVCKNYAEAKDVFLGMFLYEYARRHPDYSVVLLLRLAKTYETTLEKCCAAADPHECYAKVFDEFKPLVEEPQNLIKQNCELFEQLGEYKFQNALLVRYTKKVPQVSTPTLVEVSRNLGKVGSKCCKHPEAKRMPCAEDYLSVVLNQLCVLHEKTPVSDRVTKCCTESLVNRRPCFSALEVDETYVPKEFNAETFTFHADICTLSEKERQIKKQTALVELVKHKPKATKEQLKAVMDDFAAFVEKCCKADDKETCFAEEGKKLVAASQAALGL
Method: Proton relaxation enhancement (PRE) titrations were performed to evaluate the binding of these agents to HSA under conditions where the concentration of HSA was varied while the concentration of GdL and Zn^2+ (1:1) were held constant (FIG. 6). […] These types of complexes only bind to HSA-binding site 2 of subdomain IIIA, so n was assumed=1.
Affinity constants to HSA were assessed by proton relaxation enhancement (PRE) measurements according to published procedures (Martins et al., 2013a; Martins et al., 2013b) The proton relaxation rates at increasing concentrations of protein were measured with a MRS-6 NMR analyzer (20 MHz, 310 K). For the E-titration, the concentrations of GdL complex (0.1 mM) and Zn(II) (0.1 mM) were kept constant, while the protein concentration was varied from 0 to 0.6 mM.

[2] = 17O NMR of Gd complexes (water exchange, SBM fitting); assay type: physicochemical; parameters: A/ℏ: unit not given here; details: for hyperfine coupling constant (AO/ℏ): 17O NMR fit, underlined values fixed during fitting; for water exchange rate kex^310 / ΔH‡ / ER / τRO^298 / A/ℏ / EV / Δ^2 / τV^298: 17O NMR; for water exchange rate kex^310 / ΔH‡: 9.4 T; for water exchange rate kex^310: 310 K; for ΔH‡ / ER / τRO^298 / A/ℏ / EV / Δ^2 / τV^298: best-fit; for ΔH‡: [Gd^3+]=25 mM; for ER: activation energy of rotational correlation time; for τRO^298: rotational correlation time; for A/ℏ: scalar coupling constant; for EV / Δ^2 / τV^298: sometimes fixed; for water exchange rate kex: slowest exchange rates, in 1/s; for faster water exchange rates: compared with GdL1 and GdL4; for empirical constant describing the outer sphere contribution to the 17O chemical shift, Cos: fitted
Method: Given that the rate of water exchange (kex) in these complexes is likely the limiting factor in determining the magnitude of r1 increase when the GdL-Zn complexes bind to HSA, further temperature dependent ^17O NMR studies were performed to evaluate the water exchange rates. A simultaneous analysis of ^17O reduced T1, T2, and chemical shift (Δωr) data were analyzed (Powell et al., 1996; Gonzalez et al., 1994; Martins et al., 2013; Martins et al., 2015) to estimate the q values, kex, and hyperfine coupling constants for GdL1-5.
^17O NMR experiments were performed at 9.4 T on a Bruker AVANCE III NMR spectrometer. The temperature was regulated by air flow controlled by a Bruker VT unit. The samples ([Gd^3+]=25 mM; [Dy^3+]=1 mM) were prepared in ^17O enriched water (10%) with the pH being maintained at 7.4 with 100 mM Tris buffer. The sample was loaded into a 18 μL spherical bulb (Wilmad-Lab Glass, Vineland, NJ) and placed inside a 5 mm NMR tube containing 400 μL of water to eliminate any susceptibility effects. Longitudinal relaxation rates (1/T1) were obtained by the inversion recovery method and transverse relaxation rates (1/T2) were obtained by the Carr-Purcell—Meiboom—Gill spin echo technique. The acidified water (pH=3.0) containing 10% enriched ^17O water was used as a reference for the measurements. For the DyL4 complexes (no HSA and with HSA+Zinc), acidified water solutions and 1 mM LaL4+3 mM HSA with zinc (1:1) were used as the corresponding references. The corresponding fittings were performed with the Scientist 3.0 software (Micromath®).
^17O NMR data have been analyzed within the framework of Solomon-Bloembergen-Morgan theory.
From the measured ^17O NMR relaxation rates and angular frequencies of the paramagnetic solutions, 1/T1, 1/T2 and ω, and of the acidified water reference, a1/T1A, 1/T2A and ωA, one can calculate the reduced relaxation rates and chemical shifts, 1/7′2, and Δωr, which may be written in Equations (A1)-(A3), where, 1/T1m, 1/T2m, is the relaxation rate of the bound water and Awn, is the chemical shift difference between bound and bulk water molecules, τm is the mean residence time or the inverse of the water exchange rate kex and Pm is the mole fraction of the bound water (Swift and Connick, 1962; Zimmerman and Brittin, 1957).
The outer sphere contributions to the ^17O relaxation rates 1/T1OS and 1/T2OS are being neglected according to previous studies (Micskei et al., 1993). Therefore, Equations (A1-A2) can be further simplified to Equations (A4) and (A5): […]
The exchange rate is supposed to obey the Eyring Equation. In Equation (A6) ΔS^‡ and ΔH^‡ are the entropy and enthalpy of activation for the water exchange process, and kex^298 is the exchange rate at 298.15 K.
In the transverse relaxation, the scalar contribution, 1/T2s, is the most relevant [Equation (A7)]. 1/τsl is the sum of the exchange rate constant and the electron spin relaxation rate [Equation (A8)].
The ^17O longitudinal relaxation rates in Gd^3+ solutions are the sum of the contributions of the dipole-dipole (dd) and quadrupolar (q) mechanisms as expressed by Equations (A11-A13) for non-extreme narrowing conditions, where γS is the electron and γ1 is the nuclear gyromagnetic ratio (γS=1.76×10^11 rad s^−1 T^−1, γ1=˜3.626×107 rad s^−1 T^−1), rGdO is the effective distance between the electron charge and the ^17O nucleus, I is the nuclear spin (5/2 for ^17O), x is the quadrupolar coupling constant and η is an asymmetry parameter:
In Equation (A3) the chemical shift of the bound water molecule, Δωm, depends on the hyperfine interaction between the Gd^3+ electron spin and the ^17O nucleus and is directly proportional to the scalar coupling constant, A/h, as expressed in Equation (A12) (Brittain and Desreux, 1984).
The isotopic Landé g factor is equal to 2.0 for the Gd^3+, B represents the magnetic field, and kB is the Boltzmann constant. […]

SMILES | r1^c (relaxivity of the bound state) [1] [s⁻¹ mM⁻¹] | Kd [1] [µM] | hyperfine coupling constant (AO/ℏ) [2] | water exchange rate kex^310 [2] | ΔH‡ [2] [kJ/mol] | ER [2] [kJ/mol] | τRO^298 [2] [ps] | A/ℏ [2] | EV [2] | Δ^2 [2] | τV^298 [2] [ps] | water exchange rate kex [2] | faster water exchange rates [2] [fold] | empirical constant describing the outer sphere contribution to the 17O chemical shift, Cos [2]
O=C(O)CN1CCN(CC(=O)O)CCN(CC(=O)NCCN(Cc2ccccn2)Cc2ccccn2)CCN(CC(=O)O)CC1 [GdL1] | 20 ± 0.5 | 48 ± 6 | −4.0 ± 0.2 ×10^6 rad/s | 2.9 ± 0.1 ×10^6 s^−1 | 44.3 ± 1.0 | 20.7 ± 0.2 | 280 ± 11 | −4.0 ± 0.1 | 1.1 ± 0.1 kJ/mol | 0.10 ± 0.01 10^20 s^−2 | 4.6 ± 0.1 | ~3 ×106 5-1 |  | 
O=C(O)CN1CCN(CCC(=O)NCCN(Cc2ccccn2)Cc2ccccn2)CCN(CC(=O)O)CCN(CC(=O)O)CC1 [GdL2] | 28 ± 0.3 | 49 ± 7 | −3.7 ± 0.2 ×10^6 rad/s | 100 ± 1 ×10^6 s^−1 | 45.8 ± 1.1 | 17.1 ± 0.2 | 320 ± 11 | −3.7 ± 0.2 | 1.1 ± .01 kJ/mol | 0.13 ± 0.01 10^20 s^−2 | 7.1 ± 0.1 |  | ~30 | 0.1
O=C(O)CCN1CCN(CC(=O)O)CCN(CC(=O)NCCN(Cc2ccccn2)Cc2ccccn2)CCN(CC(=O)O)CC1 [GdL3] | 30 ± 0.6 | 51 ± 7 | −3.7 ×10^6 rad/s | 90 ± 0.2 ×10^6 s^−1 | 47.0 ± 1.0 | 17.2 ± 0.1 | 320 | −3.7 | 1.1 kJ/mol | 0.13 10^20 s^−2 | 7.1 |  | ~30 | 0.1
O=C(O)CN1CCN(CC(=O)O)CCN(CC(=O)NCCN(CCc2ccccn2)Cc2ccccn2)CCN(CC(=O)O)CC1 [GdL4] | 12 ± 0.3 | 55 ± 12 | −4.0 ± 0.2 ×10^6 rad/s | 3.0 ± 0.1 ×10^6 s^−1 | 15.1 ± 1.5 | 17.4 ± 0.2 | 350 ± 12 | −4.0 ± 0.4 | 1.0 kJ/mol | 0.16 10^20 s^−2 | 11 | ~3 ×106 5-1 |  | 
O=C(O)CN1CCN(CCC(=O)NCCN(CCc2ccccn2)Cc2ccccn2)CCN(CC(=O)O)CCN(CC(=O)O)CC1 [GdL5] | 12 ± 0.3 | 54 ± 1 | −3.9 ± 0.3 ×10^6 rad/s | 100 ± 1 ×10^6 s^−1 | 45.7 ± 1.3 | 15.0 | 305 ± 10 | −3.9 ± 0.2 | 1.0 kJ/mol | 0.67 ± 0.2 10^20 s^−2 | 14 ± 0.2 |  | ~30 | 
